Key:
[1] = Plasma protein binding in human; assay type: ADME, cell-free; conditions: read-out: PPB (converted)
[2] = target: Epidermal growth factor receptor (Homo sapiens) (UniProt P00533); experiment: Inhibition of EGFR (unknown origin) at 1 uM relative to control
[3] = Octanol/buffer distribution coefficient, logD of the compound at pH 7.4; assay type: physicochemical
[4] = AUC(0 to 24 hrs) in rat at 60 mg/kg, po; assay type: ADME, organism-based; parameters: time < 24 hr, route oral, dose 60 mg/kg; conditions: in vivo
Wee1-like protein kinase = Wee1-like protein kinase (Homo sapiens, UniProt P30291)
Chain of Wee1-like protein kinase (P30291 whole entry): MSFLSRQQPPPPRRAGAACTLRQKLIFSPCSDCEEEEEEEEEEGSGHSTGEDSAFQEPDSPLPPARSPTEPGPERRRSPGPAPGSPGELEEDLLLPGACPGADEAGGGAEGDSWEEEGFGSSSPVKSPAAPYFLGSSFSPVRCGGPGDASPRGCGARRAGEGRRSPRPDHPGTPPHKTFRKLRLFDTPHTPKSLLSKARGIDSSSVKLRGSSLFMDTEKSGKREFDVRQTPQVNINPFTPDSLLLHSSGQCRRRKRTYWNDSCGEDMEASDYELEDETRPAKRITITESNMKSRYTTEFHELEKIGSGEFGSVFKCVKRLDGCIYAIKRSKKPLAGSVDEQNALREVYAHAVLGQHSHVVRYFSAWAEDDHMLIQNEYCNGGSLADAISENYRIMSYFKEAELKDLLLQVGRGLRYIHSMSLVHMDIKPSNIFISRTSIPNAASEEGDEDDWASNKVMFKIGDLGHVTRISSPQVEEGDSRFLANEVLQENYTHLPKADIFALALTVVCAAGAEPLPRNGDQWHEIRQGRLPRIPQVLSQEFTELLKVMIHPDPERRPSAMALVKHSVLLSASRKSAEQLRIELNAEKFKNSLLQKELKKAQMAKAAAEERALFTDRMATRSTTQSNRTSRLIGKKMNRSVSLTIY
Description: Displacement of Alexa Fluor labelled kinase tracer178 from WEE1 (unknown origin) incubated for 60 mins by FRET assay

[5] = target: Serine/threonine-protein kinase PLK2 (Homo sapiens, UniProt Q9NYY3); experiment: Inhibition of PLK2 (unknown origin) at 1 uM relative to control
Chain of Serine/threonine-protein kinase PLK2 (Q9NYY3 whole entry, looked up): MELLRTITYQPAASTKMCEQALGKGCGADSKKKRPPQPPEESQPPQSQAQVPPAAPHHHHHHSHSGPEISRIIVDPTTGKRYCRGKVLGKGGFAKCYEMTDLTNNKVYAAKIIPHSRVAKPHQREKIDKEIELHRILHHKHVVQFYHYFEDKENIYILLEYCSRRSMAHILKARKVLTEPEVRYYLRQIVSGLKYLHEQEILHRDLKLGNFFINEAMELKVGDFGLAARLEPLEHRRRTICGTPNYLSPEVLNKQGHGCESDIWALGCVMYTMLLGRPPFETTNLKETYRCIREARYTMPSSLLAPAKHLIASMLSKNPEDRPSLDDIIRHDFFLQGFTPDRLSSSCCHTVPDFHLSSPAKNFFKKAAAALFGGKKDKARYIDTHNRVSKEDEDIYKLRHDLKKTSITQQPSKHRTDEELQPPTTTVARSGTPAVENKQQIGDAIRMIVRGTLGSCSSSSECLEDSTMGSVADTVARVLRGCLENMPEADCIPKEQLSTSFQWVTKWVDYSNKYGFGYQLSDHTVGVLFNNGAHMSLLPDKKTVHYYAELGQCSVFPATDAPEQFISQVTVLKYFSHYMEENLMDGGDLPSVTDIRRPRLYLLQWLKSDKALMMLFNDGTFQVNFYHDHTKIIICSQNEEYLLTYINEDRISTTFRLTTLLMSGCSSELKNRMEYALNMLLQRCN

[6] = target: Serine/threonine-protein kinase PLK3 (Homo sapiens, UniProt Q9H4B4); experiment: Inhibition of PLK3 (unknown origin) at 1 uM relative to control
Chain of Serine/threonine-protein kinase PLK3 (Q9H4B4 whole entry, looked up): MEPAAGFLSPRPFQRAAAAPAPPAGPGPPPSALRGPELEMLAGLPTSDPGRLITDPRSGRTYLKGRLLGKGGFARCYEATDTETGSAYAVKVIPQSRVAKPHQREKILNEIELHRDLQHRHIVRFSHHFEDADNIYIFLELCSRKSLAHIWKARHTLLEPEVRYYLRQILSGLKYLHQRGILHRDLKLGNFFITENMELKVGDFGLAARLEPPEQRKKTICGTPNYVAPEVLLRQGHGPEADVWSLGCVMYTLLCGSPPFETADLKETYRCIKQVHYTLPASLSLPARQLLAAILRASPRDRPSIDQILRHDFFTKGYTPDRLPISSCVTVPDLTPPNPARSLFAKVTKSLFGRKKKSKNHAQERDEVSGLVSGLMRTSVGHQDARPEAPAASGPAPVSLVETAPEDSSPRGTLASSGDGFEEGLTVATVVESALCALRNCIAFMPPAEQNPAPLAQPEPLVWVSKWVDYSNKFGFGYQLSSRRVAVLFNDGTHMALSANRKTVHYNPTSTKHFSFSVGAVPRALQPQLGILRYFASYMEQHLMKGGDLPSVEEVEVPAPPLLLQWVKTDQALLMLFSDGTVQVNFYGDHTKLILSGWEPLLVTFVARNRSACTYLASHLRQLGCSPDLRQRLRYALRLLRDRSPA

NCI-H23 = experiment: Antiproliferative activity against human NCI-H23 cells assessed as reduction in cell viability after 4 days by CellTiter-Glo assay; conditions: Homo sapiens, NCI-H23, 96 h
[7] = Intrinsic clearance in mouse microsomes; assay type: ADME, Microsome
[8] = target: T1, Cyclin-G-associated kinase (Homo sapiens) (UniProt O14976); experiment: Inhibition of GAK (unknown origin) at 1 uM relative to control
T1 sequence (whole entry): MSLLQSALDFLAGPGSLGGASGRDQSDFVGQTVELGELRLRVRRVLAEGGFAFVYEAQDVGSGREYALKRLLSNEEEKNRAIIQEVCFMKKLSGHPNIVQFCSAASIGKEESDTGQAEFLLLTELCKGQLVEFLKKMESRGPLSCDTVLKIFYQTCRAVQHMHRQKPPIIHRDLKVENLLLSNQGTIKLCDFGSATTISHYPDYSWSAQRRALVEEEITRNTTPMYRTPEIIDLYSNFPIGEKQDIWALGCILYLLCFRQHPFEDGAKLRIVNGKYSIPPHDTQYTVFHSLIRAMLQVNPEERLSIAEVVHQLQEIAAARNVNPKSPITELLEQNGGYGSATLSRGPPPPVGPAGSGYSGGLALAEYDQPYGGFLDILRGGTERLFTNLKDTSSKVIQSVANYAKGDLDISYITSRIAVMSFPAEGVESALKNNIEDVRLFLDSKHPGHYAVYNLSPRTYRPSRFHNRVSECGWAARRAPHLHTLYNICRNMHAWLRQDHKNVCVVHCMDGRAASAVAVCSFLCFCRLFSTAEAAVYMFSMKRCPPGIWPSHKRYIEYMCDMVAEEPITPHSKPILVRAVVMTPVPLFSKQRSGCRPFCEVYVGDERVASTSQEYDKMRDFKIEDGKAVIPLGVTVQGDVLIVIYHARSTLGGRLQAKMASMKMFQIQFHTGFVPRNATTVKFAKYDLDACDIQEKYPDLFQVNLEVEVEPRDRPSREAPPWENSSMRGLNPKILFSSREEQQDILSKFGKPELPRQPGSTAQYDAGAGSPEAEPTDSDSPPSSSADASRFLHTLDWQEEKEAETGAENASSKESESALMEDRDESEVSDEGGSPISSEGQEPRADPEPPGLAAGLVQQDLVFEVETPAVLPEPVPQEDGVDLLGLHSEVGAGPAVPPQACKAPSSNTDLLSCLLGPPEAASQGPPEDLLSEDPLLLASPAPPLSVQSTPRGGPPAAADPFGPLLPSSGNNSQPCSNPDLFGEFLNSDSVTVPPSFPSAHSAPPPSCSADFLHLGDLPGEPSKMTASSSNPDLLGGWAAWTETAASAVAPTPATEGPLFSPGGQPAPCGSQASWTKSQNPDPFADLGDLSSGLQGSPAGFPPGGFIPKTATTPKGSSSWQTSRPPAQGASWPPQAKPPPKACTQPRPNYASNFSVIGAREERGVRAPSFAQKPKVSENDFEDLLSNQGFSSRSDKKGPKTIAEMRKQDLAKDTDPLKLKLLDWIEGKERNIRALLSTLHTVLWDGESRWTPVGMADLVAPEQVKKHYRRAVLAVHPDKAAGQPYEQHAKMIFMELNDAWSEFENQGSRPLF

[9] = AUC(0 to 24 hrs) in mouse at 60 mg/kg, po; assay type: ADME, organism-based; parameters: time < 24 hr, route oral, dose 60 mg/kg; conditions: in vivo
[10] = Plasma protein binding in mouse; assay type: ADME, cell-free; conditions: read-out: PPB (converted)
[11] = target: T2, Mitogen-activated protein kinase kinase kinase 19 (Homo sapiens) (UniProt Q56UN5); experiment: Inhibition of YSK4 (unknown origin) at 1 uM relative to control
T2 sequence (whole entry): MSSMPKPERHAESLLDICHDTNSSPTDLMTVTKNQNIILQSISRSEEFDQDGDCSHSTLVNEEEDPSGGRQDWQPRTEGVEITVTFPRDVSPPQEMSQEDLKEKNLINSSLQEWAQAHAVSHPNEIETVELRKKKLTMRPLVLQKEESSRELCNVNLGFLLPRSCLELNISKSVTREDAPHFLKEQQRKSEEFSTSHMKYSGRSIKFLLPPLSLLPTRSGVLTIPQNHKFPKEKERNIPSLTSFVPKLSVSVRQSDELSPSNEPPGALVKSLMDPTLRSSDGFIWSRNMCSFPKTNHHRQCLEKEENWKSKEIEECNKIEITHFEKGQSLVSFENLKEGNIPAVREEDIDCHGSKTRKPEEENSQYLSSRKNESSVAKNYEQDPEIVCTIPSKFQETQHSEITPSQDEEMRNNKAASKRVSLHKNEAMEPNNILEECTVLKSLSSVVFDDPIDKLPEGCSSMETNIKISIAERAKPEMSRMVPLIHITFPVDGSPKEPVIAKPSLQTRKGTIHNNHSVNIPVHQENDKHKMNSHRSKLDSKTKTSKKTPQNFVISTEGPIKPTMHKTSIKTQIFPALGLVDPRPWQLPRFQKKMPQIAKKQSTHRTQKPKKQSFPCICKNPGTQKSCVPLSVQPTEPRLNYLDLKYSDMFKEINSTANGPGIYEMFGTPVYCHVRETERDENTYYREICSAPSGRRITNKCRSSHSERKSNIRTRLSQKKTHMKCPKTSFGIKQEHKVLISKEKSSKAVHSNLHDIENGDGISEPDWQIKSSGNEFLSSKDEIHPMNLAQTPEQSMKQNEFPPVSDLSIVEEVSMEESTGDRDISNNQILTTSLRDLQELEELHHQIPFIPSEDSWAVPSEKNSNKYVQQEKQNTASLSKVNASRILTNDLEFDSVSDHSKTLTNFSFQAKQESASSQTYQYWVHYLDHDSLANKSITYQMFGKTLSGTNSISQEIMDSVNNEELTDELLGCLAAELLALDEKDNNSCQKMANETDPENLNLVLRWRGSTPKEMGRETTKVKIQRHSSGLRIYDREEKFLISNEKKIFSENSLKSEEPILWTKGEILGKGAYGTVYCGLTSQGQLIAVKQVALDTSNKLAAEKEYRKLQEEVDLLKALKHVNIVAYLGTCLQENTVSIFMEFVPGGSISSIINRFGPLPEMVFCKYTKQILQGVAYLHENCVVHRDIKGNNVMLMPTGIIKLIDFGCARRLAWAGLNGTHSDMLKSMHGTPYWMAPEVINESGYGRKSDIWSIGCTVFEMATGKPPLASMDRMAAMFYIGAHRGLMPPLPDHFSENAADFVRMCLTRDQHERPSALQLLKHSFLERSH

[12] = Intrinsic clearance in human microsomes; assay type: ADME, Microsome

Chain of Epidermal growth factor receptor (Homo sapiens) (P00533 whole entry): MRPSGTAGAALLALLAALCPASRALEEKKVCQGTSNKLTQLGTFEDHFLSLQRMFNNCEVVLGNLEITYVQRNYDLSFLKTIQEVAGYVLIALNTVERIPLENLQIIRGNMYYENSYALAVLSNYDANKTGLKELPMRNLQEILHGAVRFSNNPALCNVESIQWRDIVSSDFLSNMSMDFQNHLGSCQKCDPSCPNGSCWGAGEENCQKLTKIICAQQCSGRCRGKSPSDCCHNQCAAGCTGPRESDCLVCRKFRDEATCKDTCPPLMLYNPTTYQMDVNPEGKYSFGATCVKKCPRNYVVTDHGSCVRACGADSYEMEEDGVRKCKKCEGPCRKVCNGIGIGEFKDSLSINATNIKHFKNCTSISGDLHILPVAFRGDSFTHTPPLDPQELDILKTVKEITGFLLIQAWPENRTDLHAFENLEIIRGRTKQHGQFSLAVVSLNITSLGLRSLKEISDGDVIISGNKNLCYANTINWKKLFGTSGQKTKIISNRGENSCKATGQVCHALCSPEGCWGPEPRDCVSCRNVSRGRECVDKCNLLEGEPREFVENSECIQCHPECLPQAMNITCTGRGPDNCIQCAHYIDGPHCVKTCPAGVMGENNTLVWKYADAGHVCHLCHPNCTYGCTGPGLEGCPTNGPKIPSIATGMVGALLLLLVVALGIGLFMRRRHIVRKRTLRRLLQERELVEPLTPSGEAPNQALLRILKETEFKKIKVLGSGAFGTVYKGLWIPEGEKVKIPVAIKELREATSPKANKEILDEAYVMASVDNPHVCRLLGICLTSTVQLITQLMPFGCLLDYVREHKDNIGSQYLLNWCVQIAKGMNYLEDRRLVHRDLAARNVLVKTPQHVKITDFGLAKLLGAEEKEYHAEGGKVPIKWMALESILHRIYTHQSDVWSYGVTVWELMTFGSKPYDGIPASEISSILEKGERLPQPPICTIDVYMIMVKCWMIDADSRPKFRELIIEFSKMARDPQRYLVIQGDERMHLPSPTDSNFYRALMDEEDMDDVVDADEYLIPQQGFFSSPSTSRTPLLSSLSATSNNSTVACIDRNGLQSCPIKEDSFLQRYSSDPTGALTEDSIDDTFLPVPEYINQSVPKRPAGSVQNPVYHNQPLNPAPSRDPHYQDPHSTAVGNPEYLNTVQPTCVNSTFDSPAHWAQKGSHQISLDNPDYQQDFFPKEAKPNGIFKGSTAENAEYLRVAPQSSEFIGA

- fraction unbound [1]: 0.47
- inhibition [2]: > 90%
- logD [3]: 2
- AUC(0-t) at 24 h [4]: 35 µM·h
- IC50 (Wee1-like protein kinase): 4.8 nM
- inhibition [5]: > 90%
- inhibition [6]: 75%
- IC50 (NCI-H23): 317 nM
- CLint scaled [7]: < 38 mL/min/kg
- inhibition [8]: 75%
- AUC(0-t) at 24 h [9]: 27 µM·h
- fraction unbound [10]: 0.27
- inhibition [11]: > 90%
- CLint scaled [12]: 20 mL/min/kg
Compound: C=CCn1c(=O)c2cnc(Nc3ccc(N4CCN(C)CC4)cc3)nc2n1-c1ccc2c(n1)[C@](C)(O)CC2

— ChEMBL document CHEMBL4842364 (J Med Chem, 2021)
